Data: ChEMBL document CHEMBL1130441, “Studies on -lactam antibiotics. Synthesis and antibacterial activity of novel 1-methylcarbapenems related to FR21818: 5-membered ring analogs” (1997)
Converted amounts (≈) assume the structure as drawn.

Legend:
[1] = test system: Escherichia coli; assay: In vitro antibacterial activity of compound was measured on Escherichia coli NIHJ JC-2; format: functional
[2] = test system: Mus musculus; assay: Protective activity of compound against lethal systemic infection by Staphylococcus aureus 8008 (MRSA) in ICR mice at 1 hr after sc administration; format: functional
[3] = test system: Proteus vulgaris; assay: In vitro antibacterial activity of compound was measured on Proteus vulgaris IAM 1025; format: functional
[4] = test system: Pseudomonas aeruginosa; assay: In vitro antibacterial activity of compound was measured on Pseudomonas aeruginosa IAM 1095; format: functional
[5] = test system: Staphylococcus aureus; assay: In vitro antibacterial activity of compound was measured on Staphylococcus aureus 209P JC-1; format: functional
[6] = test system: Staphylococcus aureus; assay: In vitro antibacterial activity of compound was measured on Staphylococcus aureus 3004(MRSA); format: functional
[7] = test system: Pseudomonas aeruginosa; assay: In vitro antibacterial activity of compound was measured on Pseudomonas aeruginosa 26; format: functional
[8] = molecular target: Dipeptidase 1 (Homo sapiens) (UniProt P16444); assay: In vitro rate of hydrolysis by human dehydropeptidase-1 compared to meropenem.
Sequence of Dipeptidase 1 (Homo sapiens) (P16444 whole entry, looked up): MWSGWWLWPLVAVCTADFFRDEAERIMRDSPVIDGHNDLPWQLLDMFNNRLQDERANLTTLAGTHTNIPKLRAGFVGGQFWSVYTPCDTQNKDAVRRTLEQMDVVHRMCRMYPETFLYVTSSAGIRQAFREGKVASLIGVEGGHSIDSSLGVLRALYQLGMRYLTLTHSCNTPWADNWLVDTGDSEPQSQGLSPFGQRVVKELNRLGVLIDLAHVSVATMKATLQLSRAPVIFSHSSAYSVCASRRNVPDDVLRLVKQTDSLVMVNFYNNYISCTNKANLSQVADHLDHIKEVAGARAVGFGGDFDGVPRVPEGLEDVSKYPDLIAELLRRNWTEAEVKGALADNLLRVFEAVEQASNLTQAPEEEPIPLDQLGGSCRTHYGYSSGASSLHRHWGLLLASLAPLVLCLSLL

[9] = test system: Mus musculus; assay: Protective activity of compound was measured against lethal systemic infection by Staphylococcus aureus 8008 (MRSA) in ICR mice at 1 hr after subcutaneous administration; format: functional; conditions: sc

| Structure (SMILES) | MIC [1] [µg/mL] | ED50 [2] [mg/kg] | MIC [3] [µg/mL] | MIC [4] [µg/mL] | MIC [5] [µg/mL] | MIC [6] [µg/mL] | MIC [7] [µg/mL] | DHP-I stability [8] | ED50 [9] [mg/kg] |
| --- | --- | --- | --- | --- | --- | --- | --- | --- | --- |
| C[C@@H](O)[C@H]1C(=O)N2C(C(=O)[O-])=C(SC3Cn4cnc[n+]4C3)[C@H](C)[C@H]12 (some centres undefined) [BIAPENEM] | 0.39 (≈ 1.11 µM) | 35.2 | 3.13 (≈ 8.93 µM) | 1.56 (≈ 4.45 µM) | 0.05 (≈ 0.143 µM) | 25 (≈ 71.3 µM) | 0.2 (≈ 0.571 µM) | 0.15 | – |
| C[C@@H](O)[C@H]1C(=O)N2C(C(=O)O)=C(S[C@@H]3CN[C@H](Cc4cn5[n+](c4)CCC5)C3)[C@H](C)[C@H]12.[Cl-] | 0.1 | – | – | 3.13 | – | – | – | 0.21 | – |
| C[C@@H](O)[C@H]1C(=O)N2C(C(=O)O)=C(S[C@@H]3CN[C@H](Cc4c(CO)c[n+](C)n4C)C3)[C@H](C)[C@H]12.[Cl-] | 0.2 | – | 0.78 | 3.13 | 0.1 | 25 | 0.39 | 0.28 | – |
| C[C@@H](O)[C@H]1C(=O)N2C(C(=O)O)=C(S[C@@H]3CN[C@H](Cc4n(C)nc[n+]4C)C3)[C@H](C)[C@H]12.[Cl-] | 0.2 | – | 0.78 | 12.5 | 0.1 | 12.5 | 1.56 | 0.22 | – |
| C[C@@H](O)[C@H]1C(=O)N2C(C(=O)O)=C(S[C@@H]3CN[C@H](C(=O)N(C)C)C3)[C@H](C)[C@H]12 [MEROPENEM] | 0.025 (≈ 0.0652 µM) | 7.88 | 0.1 (≈ 0.261 µM) | 1.56 (≈ 4.07 µM) | 0.1 (≈ 0.261 µM) | 25 (≈ 65.2 µM) | 0.2 (≈ 0.522 µM) | 1 | – |
| C[C@@H](O)[C@H]1C(=O)N2C(C(=O)O)=C(S[C@@H]3CN[C@H](Cc4cn(C)[n+](CCO)c4)C3)[C@H](C)[C@H]12.[Cl-] | 0.39 | – | 1.56 | 1.56 | 0.05 | 12.5 | 0.39 | 0.2 | – |
| C[C@@H](O)[C@H]1C(=O)N2C(C(=O)O)=C(S[C@@H]3CN[C@H](Cc4n(C)cc[n+]4C)C3)[C@H](C)[C@H]12.[Cl-] | 0.1 | – | 0.78 | 12.5 | 0.1 | 6.25 | 0.39 | 0.3 | – |
| CC1(C)C[C@@H]1C(=O)N/C(=C\CCCCSC[C@H](N)C(=O)O)C(=O)O [CILASTATIN] | – | 7.88 | – | – | – | – | – | – | – |
| C[C@@H](O)[C@H]1C(=O)N2C(C(=O)O)=C(S[C@@H]3CN[C@H](Cc4cn(C)[n+](C)c4)C3)[C@H](C)[C@H]12.[Cl-] | 0.2 | – | 1.56 | 3.13 | 0.05 | 3.13 | 0.39 | 0.28 | – |
| C[C@@H](O)[C@H]1C(=O)N2C(C(=O)O)=C(S[C@@H]3CN[C@H](Cc4cc[n+](CC(=O)O)n4C)C3)[C@H](C)[C@H]12.[Cl-] | 0.05 | – | – | 3.13 | – | – | – | 0.61 | – |
| C[C@@H](O)[C@H]1C(=O)N2C(C(=O)O)=C(S[C@@H]3CN[C@H](Cc4cc(CO)[n+](C)n4C)C3)[C@H](C)[C@H]12.[Cl-] | 0.1 | – | – | 6.25 | – | – | – | – | – |
| C[C@@H](O)[C@H]1C(=O)N2C(C(=O)O)=C(S[C@@H]3CN[C@H](Cc4c[n+](C)cn4C)C3)[C@H](C)[C@H]12.[Cl-] | 0.2 | – | 0.78 | 3.13 | 0.05 | 6.25 | 0.2 | 0.41 | – |
| C[C@@H](O)[C@H]1C(=O)N2C(C(=O)O)=C(S[C@@H]3CN[C@H](Cc4c[n+](C)c(CO)n4C)C3)[C@H](C)[C@H]12.[Cl-] | 0.2 | – | 0.78 | 1.56 | 0.05 | 6.25 | 0.2 | 0.27 | – |
| C[C@@H](O)[C@H]1C(=O)N2C(C(=O)O)=C(S[C@@H]3CN[C@H](Cc4cn(C)[n+](C)c4CO)C3)[C@H](C)[C@H]12.[Cl-] | 0.39 | – | 1.56 | 6.25 | 0.05 | 6.25 | 0.39 | 0.24 | – |
| C[C@@H](O)[C@H]1C(=O)N2C(C(=O)O)=C(S[C@@H]3CN[C@H](Cc4cc[n+](CC(N)=O)n4C)C3)[C@H](C)[C@H]12.[Cl-] | 0.1 | – | 0.39 | 3.13 | < 0.025 | 6.25 | 0.1 | 0.35 | – |
| CN[C@H](CC(C)C)C(=O)N[C@H]1C(=O)N[C@@H](CC(N)=O)C(=O)N[C@H]2C(=O)N[C@H]3C(=O)N[C@H](C(=O)N[C@H](C(=O)O)c4cc(O)cc(O)c4-c4cc3ccc4O)[C@H](O)c3ccc(c(Cl)c3)Oc3cc2cc(c3O[C@@H]2O[C@H](CO)[C@@H](O)[C@H](O)[C@H]2O[C@H]2C[C@](C)(N)[C@H](O)[C@H](C)O2)Oc2ccc(cc2Cl)[C@H]1O [VANCOMYCIN] | – | – | – | – | – | – | – | – | 2.73 |
| C[C@@H](O)[C@H]1C(=O)N2C(C(=O)O)=C(S[C@@H]3CN[C@H](Cc4c[n+](CC(N)=O)cn4C)C3)[C@H](C)[C@H]12.[Cl-] | 0.1 | – | 0.78 | 3.13 | 0.05 | 12.5 | 0.2 | 0.31 | – |
| C[C@@H](O)[C@H]1C(=O)N2C(C(=O)O)=C(S[C@@H]3CN[C@H](Cc4c[n+](CCO)cn4C)C3)[C@H](C)[C@H]12.[Cl-] | 0.1 | – | 1.56 | 3.13 | 0.05 | 12.5 | 0.39 | 0.25 | – |
| C[C@@H](O)[C@H]1C(=O)N2C(C(=O)O)=C(S[C@@H]3CN[C@H](Cc4c[n+](C)c(C(N)=O)n4C)C3)[C@H](C)[C@H]12.[Cl-] | 0.1 | – | – | 1.56 | – | – | – | 0.3 | – |
| C[C@@H](O)[C@H]1C(=O)N2C(C(=O)O)=C(S[C@@H]3CN[C@H](Cc4cc[n+](CCO)n4C)C3)[C@H](C)[C@H]12.[Cl-] | 0.2 | – | 1.56 | 6.25 | 0.05 | 6.25 | 0.2 | 0.26 | 5.45 |
| C[C@@H](O)[C@H]1C(=O)N2C(C(=O)O)=C(S[C@@H]3CN[C@H](Cc4cn(C)[n+](CC(N)=O)c4)C3)[C@H](C)[C@H]12.[Cl-] | 0.2 | – | 0.78 | 3.13 | < 0.025 | 6.25 | 0.2 | 0.29 | – |
| C[C@@H](O)[C@H]1C(=O)N2C(C(=O)O)=C(S[C@@H]3CN[C@H](Cc4c[n+](CCO)nn4C)C3)[C@H](C)[C@H]12.[Cl-] | 0.1 | – | 0.78 | 3.13 | 0.1 | 25 | 0.39 | 0.17 | – |
| C[C@@H](O)[C@H]1C(=O)N2C(C(=O)O)=C(S[C@@H]3CN[C@H](Cc4c[n+](C)nn4C)C3)[C@H](C)[C@H]12.[Cl-] | 0.1 | – | 0.78 | 3.13 | 0.05 | 25 | 0.39 | 0.32 | – |
| C[C@@H](O)[C@H]1C(=O)N2C(C(=O)O)=C(S[C@@H]3CN[C@H](Cc4cn(C)[n+](CC(=O)O)c4)C3)[C@H](C)[C@H]12.[Cl-] | 0.1 | – | 0.78 | 6.25 | 0.1 | 12.5 | 0.39 | 0.14 | – |
| C[C@@H](O)[C@H]1C(=O)N2C(C(=O)O)=C(S[C@@H]3CN[C@H](Cc4cc[n+](C)n4C)C3)[C@H](C)[C@H]12.[Cl-] | 0.2 | – | 0.78 | 1.56 | 0.05 | 6.25 | 0.2 | 0.42 | – |
